In patent US8987250B2 (Gilead Sciences, Inc., priority 2012, dated 2015) one finds EC50 data, which are given here for 22 compounds.

The first assay relates to HIV-IIIb. Nature of the assay: Test A: Antiviral Assay in MT4 Cells. Type of assay: cell-based. The settings on record: Human immunodeficiency virus 1, IIIB, MT4, 120 h. Summed up: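 MT-4 cells pre-infected with HIV-IIIb (0.004 m.o.i.) at 37 °C, then exposed to 3-fold serial compound dilutions (10 concentrations, quadruplicate) in RPMI 1640/10% FBS. After 5 days at 37 °C, viability read by CellTiter-Glo luminescence.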
In turn, `Cc1cc2nc(N3CCOC(c4ccccc4)C3)sc2c(-c2ccc(Cl)cc2)c1[C@H](OC(C)(C)C)C(=O)O` (stereo partly drawn) [Compound 327, (2S)-2-tert-butoxy-2-(7-(4-chlorophenyl)-5-methyl-2-(2-phenylmorpholino)benzo[d]thiazol-6-yl)acetic acid] yielded a concentration giving a half-maximal response (EC50) of 162 nM.

Staying with this assay, now noted: Human immunodeficiency virus 1, IIIB, MT4, 120 h, Table 2; MT-4 cells infected with HIV-IIIb, 5 days of incubation, CellTiter-Glo; read-out: EC50.
For `Cc1cc2nc(-c3nc(-c4ccc5c(cnn5C)c4)ccc3N)sc2c(-c2ccc(Cl)cc2)c1[C@H](OC(C)(C)C)C(=O)O` [Compound 311, (S)-2-(2-(3-amino-6-(1-methyl-1H-indazol-5-yl)pyridin-2-yl)-7-(4-chlorophenyl)-5-methylbenzo[d]thiazol-6-yl)-2-tert-butoxyacetic acid], the EC50 was determined as 45 nM. Still for that read-out and setting: the same measure for `Cc1cc2nc(-c3cn(C)c(-c4ccc5c(cnn5C)c4)n3)sc2c(-c2ccc(Cl)cc2)c1[C@H](OC(C)(C)C)C(=O)O` [Compound 312, (S)-2-tert-butoxy-2-(7-(4-chlorophenyl)-5-methyl-2-(1-methyl-2-(1-methyl-1H-indazol-5-yl)-1H-imidazol-4-yl)benzo[d]thiazol-6-yl)acetic acid]: 37 nM; for `Cc1ccc(-c2nc3cc(C)c([C@H](OC(C)(C)C)C(=O)O)c(-c4ccc(Cl)cc4)c3s2)nc1-c1ccc2c(cnn2C)c1` [Compound 313, (S)-2-tert-butoxy-2-(7-(4-chlorophenyl)-5-methyl-2-(5-methyl-6-(1-methyl-1H-indazol-5-yl)pyridin-2-yl)benzo[d]thiazol-6-yl)acetic acid]: 14 nM; for `Cc1cc2nc(-c3ccc4c(c3)c(C)nn4Cc3ccccc3)sc2c(-c2ccc(Cl)cc2)c1[C@H](OC(C)(C)C)C(=O)O` [Compound 314, (S)-2-(2-(1-benzyl-3-methyl-1H-indazol-5-yl)-7-(4-chlorophenyl)-5-methylbenzo[d]thiazol-6-yl)-2-tert-butoxyacetic acid]: 42 nM. On the same count and under the same terms, to `Cc1cc2nc(-c3ccc4nn(Cc5ccccc5)c(C)c4c3)sc2c(-c2ccc(Cl)cc2)c1[C@H](OC(C)(C)C)C(=O)O` [Compound 315, (S)-2-(2-(2-benzyl-3-methyl-2H-indazol-5-yl)-7-(4-chlorophenyl)-5-methylbenzo[d]thiazol-6-yl)-2-tert-butoxyacetic acid] belongs 34 nM; to `Cc1cc2nc(-c3ccc4nnn(C)c4c3)sc2c(-c2ccc(Cl)cc2)c1[C@H](OC(C)(C)C)C(=O)O` [Compound 316, (S)-2-tert-butoxy-2-(7-(4-chlorophenyl)-5-methyl-2-(1-methyl-1H-benzo[d][1,2,3]triazol-6-yl)benzo[d]thiazol-6-yl)acetic acid], 18 nM.

With `Cc1cc2nc(-c3ccn4c(C)nnc4c3)sc2c(-c2ccc(Cl)cc2)c1[C@H](OC(C)(C)C)C(=O)O` [Compound 317, (S)-2-tert-butoxy-2-(7-(4-chlorophenyl)-5-methyl-2-(3-methyl-[1,2,4]triazolo[4,3-a]pyridin-7-yl)benzo[d]thiazol-6-yl)acetic acid], the EC50 is 13 nM. Regarding `Cc1cc2nc(-c3ccn4nnc(C)c4c3)sc2c(-c2ccc(Cl)cc2)c1[C@H](OC(C)(C)C)C(=O)O` [Compound 318, (S)-2-tert-butoxy-2-(7-(4-chlorophenyl)-5-methyl-2-(3-methyl-[1,2,3]triazolo[1,5-a]pyridin-5-yl)benzo[d]thiazol-6-yl)acetic acid], the EC50 came out at 10 nM. On the same count and under the same terms, to `Cc1cc2nc(-c3ccn4c(C)nc(C)c4c3)sc2c(-c2ccc(Cl)cc2)c1[C@H](OC(C)(C)C)C(=O)O` [Compound 319, (S)-2-tert-butoxy-2-(7-(4-chlorophenyl)-2-(1,3-dimethylimidazo[1,5-a]pyridin-7-yl)-5-methylbenzo[d]thiazol-6-yl)acetic acid] belongs 5 nM; to `Cc1cc2nc(N3CCOC(C)(c4ccc(Cl)cc4)C3)sc2c(-c2ccc(Cl)cc2)c1[C@H](OC(C)(C)C)C(=O)O` (stereo partly drawn) [Compound 322, (2S)-2-tert-butoxy-2-(7-(4-chlorophenyl)-2-(2-(4-chlorophenyl)-2-methylmorpholino)-5-methylbenzo[d]thiazol-6-yl)acetic acid], 640 nM; to `Cc1ccc(C2(C)CN(c3nc4cc(C)c([C@H](OC(C)(C)C)C(=O)O)c(-c5ccc(Cl)cc5)c4s3)CCO2)cc1` (stereo partly drawn) [Compound 323, (2S)-2-tert-butoxy-2-(7-(4-chlorophenyl)-5-methyl-2-(2-methyl-2-p-tolylmorpholino)benzo[d]thiazol-6-yl)acetic acid], 384 nM. On the same count and under the same terms, the same measure for `Cc1cc2nc(N3CCOC(c4ccc5c(cnn5C)c4)C3)sc2c(-c2ccc(Cl)cc2)c1[C@H](OC(C)(C)C)C(=O)O` (stereo partly drawn) [Compound 324, (2S)-2-tert-butoxy-2-(7-(4-chlorophenyl)-5-methyl-2-(2-(1-methyl-1H-indazol-5-yl)morpholino)benzo[d]thiazol-6-yl)acetic acid]: 13 nM. `Cc1cc2nc(N3CCO[C@H](c4ccc5c(cnn5C)c4)C3)sc2c(-c2ccc(Cl)cc2)c1[C@H](OC(C)(C)C)C(=O)O` [Compound 325, (S)-2-tert-butoxy-2-(7-(4-chlorophenyl)-5-methyl-2-((R)-2-(1-methyl-1H-indazol-5-yl)morpholino)benzo[d]thiazol-6-yl)acetic acid]: the 50% effective concentration (EC50) was 10 nM. As to `Cc1cc2nc(N3CCO[C@@H](c4ccc5c(cnn5C)c4)C3)sc2c(-c2ccc(Cl)cc2)c1[C@H](OC(C)(C)C)C(=O)O` [Compound 326, (S)-2-tert-butoxy-2-(7-(4-chlorophenyl)-5-methyl-2-((S)-2-(1-methyl-1H-indazol-5-yl)morpholino)benzo[d]thiazol-6-yl)acetic acid], the concentration for a half-maximal effect (EC50) was 66 nM.

For `Cc1cc2nc(-c3ccc4nn(C5COC5)cc4c3)sc2c(-c2ccc(Cl)cc2)c1[C@H](OC(C)(C)C)C(=O)O` [Compound 328, (S)-2-tert-butoxy-2-(7-(4-chlorophenyl)-5-methyl-2-(2-(oxetan-3-yl)-2H-indazol-5-yl)benzo[d]thiazol-6-yl)acetic acid], the EC50 stood at 44 nM. For the compound `Cc1cc2nc(-c3ccc4c(cnn4C4COC4)c3)sc2c(-c2ccc(Cl)cc2)c1[C@H](OC(C)(C)C)C(=O)O` [Compound 329, (S)-2-tert-butoxy-2-(7-(4-chlorophenyl)-5-methyl-2-(1-(oxetan-3-yl)-1H-indazol-5-yl)benzo[d]thiazol-6-yl)acetic acid], the EC50 was 14 nM. On the same count and under the same terms, the same measure for `Cc1cc2nc(-c3ccc4c(c3)c(C(C)C)nn4C)sc2c(-c2ccc(Cl)cc2)c1[C@H](OC(C)(C)C)C(=O)O` [Compound 330, (S)-2-tert-butoxy-2-(7-(4-chlorophenyl)-2-(3-isopropyl-1-methyl-1H-indazol-5-yl)-5-methylbenzo[d]thiazol-6-yl)acetic acid]: 19 nM. On the same count and under the same terms, to `COc1ccc(-c2cc(-c3nc4cc(C)c([C@H](OC(C)(C)C)C(=O)O)c(-c5ccc(Cl)cc5)c4s3)c(C)nn2)cc1OC` [Compound 331] belongs 44 nM; to `Cc1cc2nc(-c3ccnc(N4CCC(C)(O)CC4)n3)sc2c(-c2ccc(Cl)cc2)c1[C@H](OC(C)(C)C)C(=O)O` [Compound 332], 5 nM; to `Cc1cc2nc(-c3ccnc(N4CCC(N(C)C)CC4)n3)sc2c(-c2ccc(Cl)cc2)c1[C@H](OC(C)(C)C)C(=O)O` [Compound 334], 5 nM.

Consider `Cc1cc2nc(-c3cc(-c4ccc5c(cnn5C)c4)nnc3C)sc2c(-c2ccc(Cl)cc2)c1[C@H](OC(C)(C)C)C(=O)O` [Compound 335], for which the EC50 was determined as 14 nM.
